Results reported in patent US10023593B2, “ALK kinase inhibitor, and preparation method and uses thereof” (BEIJING PEARL BIOTECHNOLOGY LIMITED LIABILITY COMPANY, priority 2014, dated 2018).
pIC50: −log10 of the molar value.

Experiments:
Wild Type ALK kinase = biological target: T1, Wild Type ALK kinase (Homo sapiens, UniProt Q9UM73); assay: HTRF KinEASE-TK assay, inhibitory activity on wild type ALK kinase; format: biochemical; conditions: wild type ALK 1 ng/μl, substrate 1 μM, 30° C. 35 minutes, read-out: Inhibition on ALK kinases (wildtype), IC50
T1 construct: purchased Sino-US Crown Bioscience, Inc. batch number ALK 20110607
Outline: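 ALK kinase at 1 ng/μl and substrate at 1 μM were reacted with compound (1% DMSO) in buffer with 5 mM MgCl2 and 1 mM DTT for 35 min at 30 °C. HTRF detection used the 665/615 ratio, normalised to no-compound wells and to 10.4 μM LDK-378 wells. IC50 came from a concentration-response fit.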

Karpas-299 cell line = assay: CellTiter-Glo cell proliferation inhibition on Karpas-299 cell line; format: cell-based; conditions: Homo sapiens, 96 h, Karpas-299 cells, 5000 cells/well, 4 days drug treatment
Outline: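 CellTiter-Glo luminescence measured after 4-day compound exposure (0.5% DMSO final) of Karpas-299 cells seeded at 5000/well in RPMI-1640 with 10% FBS, 37 °C, 5% CO2. IC50 derived from percent inhibition relative to vehicle wells.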

T1 sequence (Q9UM73 19-1620): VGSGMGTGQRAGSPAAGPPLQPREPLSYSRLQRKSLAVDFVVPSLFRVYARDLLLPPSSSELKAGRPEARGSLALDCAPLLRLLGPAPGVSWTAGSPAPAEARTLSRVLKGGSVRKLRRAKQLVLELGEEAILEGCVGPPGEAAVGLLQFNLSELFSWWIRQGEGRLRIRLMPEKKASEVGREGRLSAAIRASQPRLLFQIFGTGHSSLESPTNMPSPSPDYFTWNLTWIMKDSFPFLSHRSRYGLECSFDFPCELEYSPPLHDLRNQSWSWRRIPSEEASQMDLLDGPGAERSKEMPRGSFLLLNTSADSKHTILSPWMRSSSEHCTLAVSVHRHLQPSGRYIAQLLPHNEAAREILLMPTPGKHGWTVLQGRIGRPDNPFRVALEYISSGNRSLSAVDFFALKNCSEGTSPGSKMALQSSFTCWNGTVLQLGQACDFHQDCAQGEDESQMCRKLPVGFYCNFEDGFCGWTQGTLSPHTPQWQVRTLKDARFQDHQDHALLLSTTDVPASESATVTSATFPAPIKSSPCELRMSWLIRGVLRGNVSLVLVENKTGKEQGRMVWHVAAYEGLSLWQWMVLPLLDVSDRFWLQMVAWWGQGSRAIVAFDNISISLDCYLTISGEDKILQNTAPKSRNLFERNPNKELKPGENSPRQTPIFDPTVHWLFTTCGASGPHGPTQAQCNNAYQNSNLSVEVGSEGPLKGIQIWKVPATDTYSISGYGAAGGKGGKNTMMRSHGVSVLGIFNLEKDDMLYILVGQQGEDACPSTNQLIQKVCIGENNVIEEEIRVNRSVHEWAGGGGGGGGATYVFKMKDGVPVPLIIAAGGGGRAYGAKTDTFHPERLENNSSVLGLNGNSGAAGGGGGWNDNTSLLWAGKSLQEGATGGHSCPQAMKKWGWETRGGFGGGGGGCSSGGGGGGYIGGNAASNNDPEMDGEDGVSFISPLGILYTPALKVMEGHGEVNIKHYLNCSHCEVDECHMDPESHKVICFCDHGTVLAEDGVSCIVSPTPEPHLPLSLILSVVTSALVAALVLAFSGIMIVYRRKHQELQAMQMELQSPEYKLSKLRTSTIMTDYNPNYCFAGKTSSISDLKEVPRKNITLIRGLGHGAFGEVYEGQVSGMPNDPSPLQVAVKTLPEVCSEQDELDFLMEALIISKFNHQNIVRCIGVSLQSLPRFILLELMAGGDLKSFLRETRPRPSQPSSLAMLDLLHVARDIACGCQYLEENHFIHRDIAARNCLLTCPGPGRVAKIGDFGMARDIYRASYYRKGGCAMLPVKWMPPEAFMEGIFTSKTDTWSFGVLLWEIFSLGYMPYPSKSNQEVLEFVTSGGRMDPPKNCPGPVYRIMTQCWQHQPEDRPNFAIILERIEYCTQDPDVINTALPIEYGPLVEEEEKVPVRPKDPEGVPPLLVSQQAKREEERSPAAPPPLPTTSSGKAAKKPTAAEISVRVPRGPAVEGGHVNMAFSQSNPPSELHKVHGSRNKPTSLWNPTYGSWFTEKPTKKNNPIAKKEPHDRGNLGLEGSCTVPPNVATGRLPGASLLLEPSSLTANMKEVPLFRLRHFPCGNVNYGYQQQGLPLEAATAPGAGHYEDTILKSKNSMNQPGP

Row | Compound | pIC50 (Wild Type ALK kinase) | pIC50 (Karpas-299 cell line)
1 | CC(C)Oc1cc(C2CCNCC2)ccc1Nc1ncc(Cl)c(Nc2cn(C)nc2S(=O)(=O)C(C)C)n1 [Final product 1, 5-chloro-N^2-[2-isopropoxy-4-(piperidin-4-yl)phenyl]-N^4-(3-isopropylsulfonyl-1-methyl-1H-pyrazol-4-yl)pyrimidin-2,4-diamine] | 8.40 | 8.00
2 | Cc1cc(Nc2ncc(Cl)c(Nc3cn(C)nc3S(=O)(=O)C(C)C)n2)c(OC(C)C)cc1C1CCNCC1 [Final product 2] | 8.22 | 7.80
3 | Cc1cc(Nc2ncc(Cl)c(Nc3cn(C)nc3S(=O)(=O)C(C)C)n2)c(OC(C)C)cc1C1CCNC1 (stereo not drawn) [Final product 3] | 8.40 | 7.55
4 | Cc1cc(Nc2ncc(Cl)c(Nc3cn(C)nc3S(=O)(=O)C(C)C)n2)c(OC2CC2)cc1C1CCN(C)C1 (stereo not drawn) [Final product 53] | 8.52 | 7.80
5 | Cc1cc(Nc2ncc(Cl)c(Nc3cn(C)nc3S(=O)(=O)C(C)C)n2)c(OC2CC2)cc1C1CN(C)C1 [Final product 54] | 8.52 | 8.15
6 | Cc1cc(Nc2ncc(Cl)c(Nc3cn(C)nc3S(=O)(=O)CC(C)C)n2)c(OC2CC2)cc1C1CN(C)C1 [Final product 55] | 8.40 | 7.60
7 | Cc1cc(Nc2ncc(Cl)c(Nc3cn(C4CC4)nc3S(=O)(=O)C(C)C)n2)c(OC2CC2)cc1C1CCN(C)CC1 [Final product 56] | 8.30 | 7.68
8 | Cc1cc(Nc2ncc(Cl)c(Nc3cn(C)nc3S(=O)(=O)CC(C)C)n2)c(OC2CC2)cc1C1CCN(C)CC1 [Final product 57] | 8.15 | 7.92
9 | COC1CN(C)CCC1c1cc(OC2CC2)c(Nc2ncc(Cl)c(Nc3cn(C)nc3S(=O)(=O)C(C)C)n2)cc1C (stereo not drawn) [Final product 58] | 8.40 | 7.96
10 | COCC1CC(c2cc(OC3CC3)c(Nc3ncc(Cl)c(Nc4cn(C)nc4S(=O)(=O)C(C)C)n3)cc2C)CCN1C (stereo not drawn) [Final product 77] | 8.70 | 8.40
11 | COCC1CC(c2cc(OC3CC3)c(Nc3ncc(Cl)c(Nc4cn(C)nc4S(=O)(=O)CC(C)C)n3)cc2C)CCN1C (stereo not drawn) [Final product 79] | 8.52 | 7.92
12 | Cc1cc(Nc2ncc(Cl)c(Nc3cn(C4CC4)nc3S(=O)(=O)C(C)C)n2)c(OC(C)C)cc1C1CCN(C)CC1 [Final product 81] | 7.96 | 7.57
13 | COCCN1CCC(c2cc(OC3CC3)c(Nc3ncc(Cl)c(Nc4cn(C)nc4S(=O)(=O)C(C)C)n3)cc2C)CC1 [Final product 82] | 8.40 | 7.85
14 | Cc1cc(Nc2ncc(Cl)c(Nc3cn(C)nc3S(=O)(=O)C(C)C)n2)c(OC2CC2)cc1C1CCN(C)CC1F (stereo not drawn) [Final product 87] | 8.22 | 7.89
15 | Cc1cc(Nc2ncc(Cl)c(Nc3cn(C)nc3S(=O)(=O)C(C)C)n2)c(OC2CC2)cc1C1CCN(C)CC1(F)F (stereo not drawn) [Final product 88] | 8.22 | 7.77
16 | Cc1cc(Nc2ncc(Cl)c(Nc3cn(C)nc3S(=O)(=O)C(C)C)n2)c(OC2CC2)cc1C1CCN(C)CC1C (stereo not drawn) [Final product 90] | 9.00 | 8.30
17 | Cc1cc(Nc2ncc(Cl)c(Nc3cn(C)nc3S(=O)(=O)C(C)C)n2)c(OC2CC2)cc1C1CCC(NS(C)(=O)=O)CC1 (stereo not drawn) [Final product 205, N-(4-(4-(5-chloro-4-(3-(isopropylsulfonyl)-1-methyl-1H-pyrazol-4-amine)pyrimidin-2-amine)-5-cyclopropoxy-2-methylphenyl)cyclohexyl)methanesulfonamide] | – | 7.74
